From patent US10287259B2, “Selenazolidine and thiazolidine compounds for treating cancer and other diseases” (The Penn State Research Foundation, priority 2016, dated 2019)

Key:
Type in all cases: cell-based
[1] = system: NF-κB p65; experiment: Immunocytochemistry for NF-κB p65 localization; conditions: Panc-1, 10 μM 6 h, TNF-α 30 min
Experimental: Immunocytochemistry was used to determine the translocation of p65 from cytoplasm to nucleus in presence of inflammatory stimuli either with vehicle or AS-10 (10 μM). In a 12 well plate, Panc-1 cells (1.6×10^5) were seeded on top of a small cover slip in DMEM medium. Cells were allowed to attach to the cover slip overnight at 37° C. incubator with 5% CO2. The next day, cells were treated with 10 μM AS-10 for 6 h and further stimulated with TNF-α (100 ng/mL, 3.9 nM) for 30 min. Exactly after 30 min plates were kept on ice and cells were fixed with 4% Formaldehyde Solution made in PBS for 15 min. Cells were washes three times with 1×PBS, followed by 1 h incubation in blocking medium (0.3% Triton X-100, 5% donkey serum, made in 1×PBS) at room temperature in dark. After blocking coverslips were incubated with primary antibody solution (primary antibody diluted 1:500 in 1% BSA solution containing 0.3% Triton X-100) over night at 4° C. Next day, primary antibody was removed and cover slips were washed three times with 1×PBS. Following incubation with 0.03% H2O2 for 15 minutes at room temperature in dark. After the incubation, secondary antibody (Alexa fluor 680) was added at dilution of 1:500 in 1% BSA containing 0.3% triton X-100 and further incubated for 1 hr. […]

[2] = system: prostate cancer cells (LnCAP, PC-3 and DU-145); experiment: Apoptosis in prostate cancer cells
[3] = system: Panc-1 cells; experiment: Cell cycle analysis by flow cytometry; conditions: serum starved 72 h; 24 h to 60 h time points
Experimental: Flow cytometry was used to determine the cell cycle phases (Plano et al., 2016, J. Med. Chem. 1946-1959). In brief, Panc-1 cells were serum starved for 72 h, followed by treatment with different doses of AS-10 in 10% serum containing media for different time points. Treated cells were fixed in 70% cold ethanol at the end of each time point. Cells were fixed for a minimum of 4 h at 4° C. Following fixation, cells were washed with 1×PBS and were re-suspended in Propidium iodide (PI) staining solution (0.1% (v/v) triton X-100, 20 mg DNAse-free RNAse A and 2 mg of PI in 100 mL PBS). Cells were incubated in the staining solution for 15 minutes at room temperature and then analyzed by a BD FACS Calibur (BD Biosciences) for total DNA content. Modfit software (BD Biosciences) was used to obtain the histograms.

Compound: CC(=O)Oc1ccccc1C(=O)/N=C1\[Se]CCN1C(=O)c1ccccc1OC(C)=O [AS-10, 2-((3-(2-acetoxybenzoyl)-1,3-selenazolidin-2-ylidene)carbamoyl)phenyl acetate]
- translocation of p65 to the nucleus [1]: unable to translocate to the nucleus
- Annexin V staining, caspase 3/7 activity, and PARP cleavage ([2]; LNCaP): increased
- apoptosis induction in prostate cancer cells ([2]; LnCAP, PC-3 and DU-145): effective at inducing apoptosis in all prostate cancer cells tested
- cell cycle effect [3]: cell cycle arrest in G1 and G2/M phase and total inhibition of S phase
